The values that follow come from patent US9120812B2, “Pyrimidooxazocine derivatives as mTOR-inhibitors” (SANOFI, priority 2012, dated 2015).

One assay addresses PI3Kα (p110α/p85α) (Homo sapiens (Human), UniProt P42336). The experiment in a line: PI3Kα enzymatic test by measuring the consumption of ATP. The assay is classed as biochemical. The essentials:
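ATP consumption read out by KinaseGlo luminescence after a 90 min reaction of 1.7 μg/ml PI3Kα (p110α/p85α) with 2 μM ATP and 50 μM PIP2, buffered at pH 7.5 (Tris, 10 mM MgCl2, 1 mM EGTA, 0.03% Chaps, 1 mM DTT). Threefold dilution series over ≥10 000-fold range yield IC50.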

For assay [1], the target named is mTOR (human recombinant aa mTOR 1360-2549) (Homo sapiens (Human), UniProt P42345). The assay is described as follows: mTOR enzymatic test by TR-FRET (phosphorylation of GFP-4EBP1). The assay is classed as biochemical. The essentials:
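After a 30 min room-temperature kinase reaction, EDTA (10 mM final) and Tb-labelled phospho-Thr46 antibody (2 nM final) were added and incubated 60 min. Energy transfer from Tb to phosphorylated GFP-4EBP1 was read at 340 nm excitation, emissions 490/520 nm. Values derive from the 520/490 fluorescence ratio.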
(In general: Time-resolved FRET reads energy transfer from a long-lived donor to a nearby acceptor.)

In a further assay the test system is Akt-pS473 in U87MG cells. The conditions noted are these: Homo sapiens, U-87 MG, read-out: U87 Akt-pS473 % Inhibition or IC50, nM (IC50), U87MG cells.
Another assay has as its system U87MG tumour cells. The experiment in a line: Test of in vitro proliferation of U87MG tumour cells. The format is cell-based. The note with it: Homo sapiens, U-87 MG, 72 h, U87MG cells, 72 hours; read-out: U87 Cell Proliferation IC50. How it is done:
Model 4: Test of in vitro Proliferation of U87MG Tumour Cells.
The cell growth is determined with the reagent CellTiter 96 AQueous One Solution Cell Proliferation Assay from Promega (Cat. No. G3581).

Sequence of mTOR (human recombinant aa mTOR 1360-2549) (P42345 1360-2549): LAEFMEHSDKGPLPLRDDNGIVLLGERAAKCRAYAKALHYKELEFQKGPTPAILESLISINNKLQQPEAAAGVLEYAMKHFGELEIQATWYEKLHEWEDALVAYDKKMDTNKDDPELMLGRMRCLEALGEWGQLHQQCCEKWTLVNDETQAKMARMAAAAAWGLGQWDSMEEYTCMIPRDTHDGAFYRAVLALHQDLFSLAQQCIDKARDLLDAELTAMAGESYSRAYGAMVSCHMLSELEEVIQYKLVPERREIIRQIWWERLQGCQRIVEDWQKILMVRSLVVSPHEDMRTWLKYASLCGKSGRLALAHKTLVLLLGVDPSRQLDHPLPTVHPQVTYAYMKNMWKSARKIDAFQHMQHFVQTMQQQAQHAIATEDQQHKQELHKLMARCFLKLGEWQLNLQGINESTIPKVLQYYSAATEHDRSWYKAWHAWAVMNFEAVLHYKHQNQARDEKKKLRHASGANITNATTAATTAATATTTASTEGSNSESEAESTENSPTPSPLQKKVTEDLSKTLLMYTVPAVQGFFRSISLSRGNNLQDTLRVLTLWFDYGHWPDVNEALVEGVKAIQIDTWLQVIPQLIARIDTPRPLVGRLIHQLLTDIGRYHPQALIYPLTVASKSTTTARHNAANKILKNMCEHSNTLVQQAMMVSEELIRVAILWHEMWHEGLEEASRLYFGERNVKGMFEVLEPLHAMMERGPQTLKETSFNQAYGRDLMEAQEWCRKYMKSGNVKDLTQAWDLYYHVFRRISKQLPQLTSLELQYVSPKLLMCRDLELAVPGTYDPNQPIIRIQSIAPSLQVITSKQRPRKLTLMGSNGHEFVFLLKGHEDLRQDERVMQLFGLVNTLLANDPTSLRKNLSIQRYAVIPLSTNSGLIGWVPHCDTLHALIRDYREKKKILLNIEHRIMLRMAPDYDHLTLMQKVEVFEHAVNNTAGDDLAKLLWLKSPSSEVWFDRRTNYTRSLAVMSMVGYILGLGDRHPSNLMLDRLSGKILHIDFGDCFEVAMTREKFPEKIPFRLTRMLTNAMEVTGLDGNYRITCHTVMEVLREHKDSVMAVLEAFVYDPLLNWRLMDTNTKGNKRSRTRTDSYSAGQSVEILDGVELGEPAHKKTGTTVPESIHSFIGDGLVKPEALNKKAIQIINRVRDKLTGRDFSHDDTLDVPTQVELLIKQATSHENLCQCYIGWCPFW
Sequence of PI3Kα (p110α/p85α) (P42336 whole entry): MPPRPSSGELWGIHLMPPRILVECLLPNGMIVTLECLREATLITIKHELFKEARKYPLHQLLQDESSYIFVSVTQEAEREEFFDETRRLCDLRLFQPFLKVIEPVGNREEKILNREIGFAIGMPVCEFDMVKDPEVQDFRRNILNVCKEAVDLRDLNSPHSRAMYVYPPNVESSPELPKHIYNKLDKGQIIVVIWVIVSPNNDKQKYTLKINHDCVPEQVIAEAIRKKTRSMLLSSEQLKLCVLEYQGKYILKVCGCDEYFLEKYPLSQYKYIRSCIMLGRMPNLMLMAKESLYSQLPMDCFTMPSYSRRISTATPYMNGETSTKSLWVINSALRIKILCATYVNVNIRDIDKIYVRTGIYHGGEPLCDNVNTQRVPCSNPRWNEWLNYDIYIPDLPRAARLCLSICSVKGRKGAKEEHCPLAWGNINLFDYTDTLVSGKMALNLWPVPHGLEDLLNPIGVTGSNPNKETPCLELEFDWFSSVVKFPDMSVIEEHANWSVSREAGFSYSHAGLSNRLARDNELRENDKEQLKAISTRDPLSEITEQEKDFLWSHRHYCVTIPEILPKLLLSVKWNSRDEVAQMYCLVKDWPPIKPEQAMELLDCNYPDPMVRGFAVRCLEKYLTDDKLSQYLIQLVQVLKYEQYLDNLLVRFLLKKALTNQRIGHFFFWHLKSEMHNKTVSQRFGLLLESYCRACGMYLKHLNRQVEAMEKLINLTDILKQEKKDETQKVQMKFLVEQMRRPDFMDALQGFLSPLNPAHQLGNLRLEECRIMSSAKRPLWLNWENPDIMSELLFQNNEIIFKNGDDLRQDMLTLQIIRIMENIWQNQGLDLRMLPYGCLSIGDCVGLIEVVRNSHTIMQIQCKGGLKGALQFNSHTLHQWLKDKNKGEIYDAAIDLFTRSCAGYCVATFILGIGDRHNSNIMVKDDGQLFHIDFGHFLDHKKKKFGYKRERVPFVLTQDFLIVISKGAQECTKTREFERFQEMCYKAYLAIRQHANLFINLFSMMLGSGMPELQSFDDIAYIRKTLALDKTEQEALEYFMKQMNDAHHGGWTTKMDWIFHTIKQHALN
Sequence of PI3Kα (p110α/p85α) (P27986 whole entry partner): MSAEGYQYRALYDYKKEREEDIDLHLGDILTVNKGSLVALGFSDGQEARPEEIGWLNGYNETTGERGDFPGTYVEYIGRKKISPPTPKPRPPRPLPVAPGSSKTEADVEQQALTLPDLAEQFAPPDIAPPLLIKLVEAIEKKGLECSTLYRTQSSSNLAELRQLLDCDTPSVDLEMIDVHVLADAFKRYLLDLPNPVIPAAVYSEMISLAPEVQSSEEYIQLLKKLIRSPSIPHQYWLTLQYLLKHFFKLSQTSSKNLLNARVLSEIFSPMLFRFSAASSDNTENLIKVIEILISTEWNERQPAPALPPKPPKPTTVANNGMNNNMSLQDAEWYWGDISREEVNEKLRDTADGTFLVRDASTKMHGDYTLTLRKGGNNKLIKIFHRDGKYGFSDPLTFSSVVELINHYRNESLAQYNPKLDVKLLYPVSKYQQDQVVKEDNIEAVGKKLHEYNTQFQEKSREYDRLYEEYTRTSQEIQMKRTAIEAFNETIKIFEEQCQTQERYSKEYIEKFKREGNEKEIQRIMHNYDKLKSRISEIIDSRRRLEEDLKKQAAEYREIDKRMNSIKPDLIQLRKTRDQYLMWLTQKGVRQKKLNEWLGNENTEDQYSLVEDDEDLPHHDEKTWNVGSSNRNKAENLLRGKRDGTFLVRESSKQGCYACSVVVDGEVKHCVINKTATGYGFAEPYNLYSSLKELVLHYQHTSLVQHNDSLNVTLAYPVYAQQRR

Consider `COCCN1CC(C)(C)Oc2nc(N3CC4CCC(C3)O4)nc(-c3ccc(NC(=O)Nc4ccc(OC)nc4)cc3)c2C1=O` [Example 197, 1-{4-[6-(2-Methoxyethyl)-8,8-dimethyl-2-(8-oxa-3-azabicyclo[3.2.1]oct-3-yl)-5-oxo-5,6,7,8-tetrahydro-9-oxa-1,3,6-triazabenzocyclohepten-4-yl]phenyl}-3-(6-methoxypyridin-3-yl)urea], for which, at PI3Kα (p110α/p85α), the “PI3Ka IC50” value is above 10000 nM. Also, the IC50 in assay [1] was found to be 117 nM; in the assay on Akt-pS473 in U87MG cells, 150 nM; in the assay with U87MG tumour cells, 523 nM.
Regarding `CCNC(=O)Nc1ccc(-c2nc(N3CC4CCC(C3)O4)nc3c2C(=O)N(CCC(=O)N(C)C)CC(C)(C)O3)cc1` [Example 8, 3-[4-[4-(3-ethylureido)phenyl]-8,8-dimethyl-2-(8-oxa-3-azabicyclo[3.2.1]oct-3-yl)-5-oxo-7,8-dihydro-5H-9-oxa-1,3,6-triazabenzocyclohepten-6-yl]-N,N-dimethylpropionamide], at PI3Kα (p110α/p85α), the “PI3Ka IC50” value is listed as above 10000 nM. The IC50 stood at 44 nM in assay [1], 537 nM in the assay on Akt-pS473 in U87MG cells and 3810 nM in the assay with U87MG tumour cells.
Turning to `CCN1CC(C)(C)Oc2nc(N3CCOC[C@@H]3C)nc(-c3ccc(NC(=O)Nc4ccncc4)c(F)c3)c2C1=O` [Example 231, 1-{4-[6-Ethyl-8,8-dimethyl-2-((S)-3-methylmorpholin-4-yl)-5-oxo-5,6,7,8-tetrahydro-9-oxa-1,3,6-triazabenzocyclohepten-4-yl]-2-fluorophenyl}-3-pyridin-4-ylurea], on PI3Kα (p110α/p85α), the “PI3Ka IC50” value came out at 103 nM. Further, the IC50 was 16 nM in assay [1], 12 nM in the assay with Akt-pS473 in U87MG cells and 29 nM in the assay with U87MG tumour cells.
In the same order, the values of `CCN1CC(C)(C)Oc2nc(N3C4CCC3COC4)nc(-c3ccc(NC(=O)Nc4ccc(N5CC6CCC(C5)O6)nc4)c(F)c3)c2C1=O` [Example 259, 1-{4-[6-Ethyl-8,8-dimethyl-2-(3-oxa-8-azabicyclo[3.2.1]oct-8-yl)-5-oxo-5,6,7,8-tetrahydro-9-oxa-1,3,6-triazabenzocyclohepten-4-yl]-2-fluorophenyl}-3-[6-(8-oxa-3-azabicyclo[3.2.1]oct-3-yl)pyridin-3-yl]urea] are above 10000 nM, 87 nM, 16 nM and 87 nM.
`CCN1CC(C)(C)Oc2nc(N3CC4CCC(C3)O4)nc(-c3ccc(NC(=O)NCC4CCOCC4)c(F)c3)c2C1=O` [Example 134, 1-{4-[6-Ethyl-8,8-dimethyl-2-(8-oxa-3-azabicyclo[3.2.1]oct-3-yl)-5-oxo-5,6,7,8-tetrahydro-9-oxa-1,3,6-triazabenzocyclohepten-4-yl]-2-fluorophenyl}-3-(tetrahydropyran-4-ylmethyl)urea]: the “PI3Ka IC50” value at PI3Kα (p110α/p85α) is above 10000 nM. Further, the IC50 in assay [1] is 3160 nM; in the assay on Akt-pS473 in U87MG cells, above 3000 nM; with U87MG tumour cells, above 10000 nM.
In the case of `CCN1CC(C)(C)Oc2nc(N3CC4CCC(C3)O4)nc(-c3ccc(Nc4nnc(-c5ccc(OC)nc5)[nH]4)c(F)c3)c2C1=O` [Example 183, 6-Ethyl-4-{3-fluoro-4-[5-(6-methoxypyridin-3-yl)-4H-[1,2,4]triazol-3-ylamino]phenyl}-8,8-dimethyl-2-(8-oxa-3-azabicyclo[3.2.1]oct-3-yl)-7,8-dihydro-6H-9-oxa-1,3,6-triazabenzocyclohepten-5-one], the “PI3Ka IC50” value at PI3Kα (p110α/p85α) is on record as above 10000 nM. For the same compound, the results for the IC50 (in assay [1]; with Akt-pS473 in U87MG cells; with U87MG tumour cells) were 128 nM, 165 nM and 752 nM, respectively.
With `CCN1CC(C)(C)Oc2nc(N3CC4CCC(C3)O4)nc(-c3ccc(NC(=O)Nc4ccc(N5CCN(C)CC5)cc4)cc3)c2C1=O` [Example 205, 1-{4-[6-Ethyl-8,8-dimethyl-2-(8-oxa-3-azabicyclo[3.2.1]oct-3-yl)-5-oxo-5,6,7,8-tetrahydro-9-oxa-1,3,6-triazabenzocyclohepten-4-yl]phenyl}-3-[4-(4-methylpiperazin-1-yl)phenyl]urea], the “PI3Ka IC50” value at PI3Kα (p110α/p85α) is on record as 3740 nM. Also, the figures for the IC50 (in assay [1]; in the assay on Akt-pS473 in U87MG cells; in the assay with U87MG tumour cells) were 63 nM, 13 nM and 22 nM, respectively.
Turning to `CCN1CC(C)(C)Oc2nc(N3CCOC[C@@H]3C)nc(-c3ccc(NC(=O)Nc4ccc(N5CCOCC5)cc4)c(F)c3)c2C1=O` [Example 227, 1-{4-[6-Ethyl-8,8-dimethyl-2-((S)-3-methylmorpholin-4-yl)-5-oxo-5,6,7,8-tetrahydro-9-oxa-1,3,6-triazabenzocyclohepten-4-yl]-2-fluorophenyl}-3-(4-morpholin-4-ylphenyl)urea], the “PI3Ka IC50” value at PI3Kα (p110α/p85α) stood at 484 nM. Further, the IC50 in assay [1] amounted to 76 nM; in the assay with Akt-pS473 in U87MG cells, 7 nM; in the assay on U87MG tumour cells, 29 nM.
As for `CCN1CC(C)(C)Oc2nc(N3CCOC[C@@H]3C)nc(-c3ccc(NC(=O)Nc4ccc(C(=O)N(C)CCN(C)C)cc4)cc3)c2C1=O` [Example 215, N-(2-Dimethylamino-ethyl)-4-(3-{4-[6-ethyl-8,8-dimethyl-2-((S)-3-methylmorpholin-4-yl)-5-oxo-5,6,7,8-tetrahydro-9-oxa-1,3,6-triazabenzocyclohepten-4-yl]phenyl}ureido)-N-methylbenzamide], the “PI3Ka IC50” value at PI3Kα (p110α/p85α) was 37 nM. Also, the values for the IC50 (in assay [1]; in the assay on Akt-pS473 in U87MG cells; in the assay with U87MG tumour cells) were 48 nM, 33 nM and 32 nM, respectively.
In the case of `CCN1CC(C)(C)Oc2nc(N3CC4CCC(C3)O4)nc(-c3ccc(NC(=O)OC[C@H](C)O)c(F)c3)c2C1=O` [Example 20, {4-[6-ethyl-8,8-dimethyl-2-(8-oxa-3-azabicyclo[3.2.1]oct-3-yl)-5-oxo-5,6,7,8-tetrahydro-9-oxa-1,3,6-triazabenzocyclohepten-4-yl]-2-fluorophenyl}carbamic acid (S)-2-hydroxypropyl ester], the “PI3Ka IC50” value on PI3Kα (p110α/p85α) was above 10000 nM. Besides, the IC50 is 286 nM in assay [1], above 1000 nM with Akt-pS473 in U87MG cells and 7590 nM with U87MG tumour cells.
On to `Cc1ccc(NC(=O)Nc2ccc(-c3nc(N4CC5CCC(C4)O5)nc4c3C(=O)N(C)CC(C)(C)O4)cc2F)cn1` [Example 66, 1-{2-Fluoro-4-[6,8,8-trimethyl-2-(8-oxa-3-azabicyclo[3.2.1]oct-3-yl)-5-oxo-5,6,7,8-tetrahydro-9-oxa-1,3,6-triazabenzocyclohepten-4-yl]phenyl}-3-(6-methylpyridin-3-yl)urea], for which the “PI3Ka IC50” value on PI3Kα (p110α/p85α) worked out at 2950 nM. The IC50 was determined as 16 nM in assay [1], 21 nM in the assay with Akt-pS473 in U87MG cells and 71 nM in the assay with U87MG tumour cells.
In the same order, the values of `CCN1CC(C)(C)Oc2nc(N3[C@@H]4CC[C@H]3COC4)nc(-c3ccc(NC(=O)Nc4ccncc4F)cc3)c2C1=O` [Example 75, 1-[4-((1S,5R)-6-Ethyl-8,8-dimethyl-2-3-oxa-8-azabicyclo[3.2.1]oct-8-yl-5-oxo-5,6,7,8-tetrahydro-9-oxa-1,3,6-triazabenzocyclohepten-4-yl)phenyl]-3-(3-fluoropyridin-4-yl)urea] are 5570 nM, 40 nM, 8 nM and 47 nM.
With `CNC(=O)Nc1ccc(-c2nc(N3CC4CCC(C3)O4)nc3c2C(=O)N(C)CC(C)(C)O3)cc1` [Example 38, 1-Methyl-3-{4-[6,8,8-trimethyl-2-(8-oxa-3-azabicyclo[3.2.1]oct-3-yl)-5-oxo-5,6,7,8-tetrahydro-9-oxa-1,3,6-triazabenzocyclohepten-4-yl]phenyl}urea], at PI3Kα (p110α/p85α), the “PI3Ka IC50” value came out at 3450 nM. Besides, the IC50 in assay [1] is 22 nM; in the assay on Akt-pS473 in U87MG cells, 23 nM; with U87MG tumour cells it was 218 nM.
